Measurements as given in publication PMC2748827 (Nature, 2009).

Test system: A/Kawasaki/UTK-4/09 (H1N1)
Type: cell-based, influenza A virus (H1N1)

Structure (SMILES): CCOC(=O)C1=C[C@@H](OC(CC)CC)[C@H](NC(C)=O)[C@@H](N)C1 [oseltamivir]
- susceptibility of virus in cell culture (in words): resistance
